Test results: US20210330611A1, “THERAPY FOR NEUROLOGICAL DISEASES/DISORDERS” (priority 2020, published 2021)
Like-named read-outs stand apart in the source and are kept apart here.

Columns and labels:
[1] = tested on: fibrin- and LPS-induced microglia activation; assay: cells; assay type: cell-based, rat
[2] = tested on: LPS-induced microglia activation; assay: Image-based assay of LPS-induced microglia activation (HTS and dose response); assay type: cell-based, rat; conditions: for inhibition at 10 µM: Rattus norvegicus, Microglia, read-out: LPS % inhibition
[3] = tested on: fibrin-induced microglia activation; assay: Image-based assay of fibrin-induced microglia activation (HTS and dose response); assay type: cell-based, rat; conditions: primary microglia HTS, fibrin stimulation; for inhibition at 10 µM: Rattus norvegicus, Microglia, read-out: Fibrin % inhibition
[4] = tested on: primary rat microglia; assay: Cell toxicity (dead cells, size <150 μm2) in coated fibrin (cFib) assay; conditions: primary microglia HTS;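 also: share of dead cells sized under 150 µm2 at 10 µM in fibrin-stimulated microglia HTS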
[5] = tested on: primary rat microglia
[6] = quadrant by fibrin and LPS inhibition, HTS at 10 μM
[7] = primary microglia HTS, LPS stimulation, compounds at 10 μM
[8] = fibrin assay, dead cells (size <150 μm2)
[9] = classification by fibrin and LPS inhibition, HTS at 10 μM
[10] = fibrin assay, dead cells (size <150 μm2), compounds at 10 μM
[11] = classification by fibrin and LPS inhibition in HTS
[12] = cell size >800 μm2 as marker of activation
[13] = fibrin stimulation, cell size <150 μm2 as marker of toxicity

Compound: NC(=O)C[S@@+]([O-])C(c1ccccc1)c1ccccc1 [Armodafinil]
- Quadrant (FIG. 5b) [1, 6]: Q4
- inhibition at 10 µM [2, 7]: 19%
- inhibition at 10 µM ([3]; compounds at 10 μM): -10%
- Fibrin % cell toxicity [4, 8]: 0%
- LPS % cell toxicity ([5]; rat): 1%

Compound: Cc1ccc(-c2ncc(Cl)cc2-c2ccc(S(C)(=O)=O)cc2)cn1 [Etoricoxib]
- Quadrant (FIG. 5b) [1, 9]: Q4
- inhibition at 10 µM [2, 7]: -4%
- inhibition at 10 µM ([3]; compounds at 10 μM): 15%
- Fibrin % cell toxicity [4, 10]: 1%
- LPS % cell toxicity ([5]; rat): 0%

Compound: C=CC[N+]1([C@H]2C[C@H]3[C@@H]4CC[C@H]5C[C@H](O)[C@@H](N6CCOCC6)C[C@]5(C)[C@H]4CC[C@]3(C)[C@H]2OC(C)=O)CCCC1 [Rocuronium]
- Quadrant (FIG. 5b) [1, 11]: Q4
- inhibition at 10 µM ([2]; 48 h): 5%
- inhibition at 10 µM [3, 12]: -22%
- Fibrin % cell toxicity [4, 13]: 1%
- LPS % cell toxicity ([5]; rat): 0%

Compound: CC(=O)Nc1ccc(CC(=O)O)cc1 [Actarit]
- Quadrant (FIG. 5b) [1, 6]: Q4
- inhibition at 10 µM [2, 7]: 9%
- inhibition at 10 µM ([3]; compounds at 10 μM): 11%
- Fibrin % cell toxicity [4, 8]: 1%
- LPS % cell toxicity ([5]; rat): 0%

Compound: C=CCSCC1Nc2cc(Cl)c(S(N)(=O)=O)cc2S(=O)(=O)N1 (stereo not drawn) [Althiazide]
- Quadrant (FIG. 5b) [1, 6]: Q4
- inhibition at 10 µM [2, 7]: 12%
- inhibition at 10 µM ([3]; compounds at 10 μM): -11%
- Fibrin % cell toxicity [4, 8]: 1%
- LPS % cell toxicity ([5]; rat): 1%

Compound: Cc1ncc(CSSCc2cnc(C)c(O)c2CO)c(CO)c1O [Pyritinol]
- Quadrant (FIG. 5b) [1, 11]: Q4
- inhibition at 10 µM ([2]; 48 h): 4%
- inhibition at 10 µM [3, 12]: -15%
- Fibrin % cell toxicity [4, 13]: 1%
- LPS % cell toxicity ([5]; rat): 0%

Compound: Nc1ccncc1 [Dalfampridine]
- Quadrant (FIG. 5b) [1, 9]: Q4
- inhibition at 10 µM [2, 7]: 2%
- inhibition at 10 µM ([3]; compounds at 10 μM): 8%
- Fibrin % cell toxicity [4, 10]: 2%
- LPS % cell toxicity ([5]; rat): 0%

Compound: CC(=O)Oc1cccc(O)c1 [Resorcinol Monoacetate]
- Quadrant (FIG. 5b) [1, 11]: Q4
- inhibition at 10 µM ([2]; 48 h): 26%
- inhibition at 10 µM [3, 12]: 12%
- Fibrin % cell toxicity [4, 13]: 1%
- LPS % cell toxicity ([5]; rat): 1%

Compound: CC(C)NCC(O)COc1cccc2[nH]ccc12 (stereo not drawn) [Pindolol]
- Quadrant (FIG. 5b) [1, 11]: Q4
- inhibition at 10 µM ([2]; 48 h): 24%
- inhibition at 10 µM [3, 12]: -13%
- Fibrin % cell toxicity [4, 13]: 1%
- LPS % cell toxicity ([5]; rat): 1%

Compound: CC1(C)C2CCC1(CS(=O)(=O)O)C(=O)C2=Cc1ccc(C=C2C(=O)C3(CS(=O)(=O)O)CCC2C3(C)C)cc1 [Ecamsule]
- Quadrant (FIG. 5b) [1, 9]: Q4
- LPS % inhibition [2, 7]: 29%
- Fibrin % inhibition ([3]; compounds at 10 μM): 20%
- Fibrin % cell toxicity [4, 10]: 1%
- LPS % cell toxicity [5]: 0%

Compound: C[C@H](N[C@@H](CCc1ccccc1)C(=O)O)C(=O)N1Cc2ccccc2C[C@H]1C(=O)O [Quinaprilat]
- Quadrant (FIG. 5b) [1, 11]: Q4
- inhibition at 10 µM ([2]; 48 h): 5%
- inhibition at 10 µM [3, 12]: -5%
- Fibrin % cell toxicity [4, 13]: 1%
- LPS % cell toxicity ([5]; rat): 0%

Compound: C=CC[C@]1(O)CC[C@H]2[C@@H]3CCC4=CC(=O)CCC4=C3C=C[C@@]21C [Altrenogest]
- Quadrant (FIG. 5b) [1, 6]: Q4
- inhibition at 10 µM [2, 7]: 15%
- inhibition at 10 µM ([3]; compounds at 10 μM): 6%
- Fibrin % cell toxicity [4, 8]: 1%
- LPS % cell toxicity ([5]; rat): 0%

Compound: O=C(Oc1cccc2cccnc12)c1ccccc1 [Benzoxiquine]
- Quadrant (FIG. 5b) [1, 6]: Q4
- inhibition at 10 µM [2, 7]: 14%
- inhibition at 10 µM ([3]; compounds at 10 μM): -2%
- Fibrin % cell toxicity [4, 8]: 1%
- LPS % cell toxicity ([5]; rat): 0%

Compound: C[C@@H]1C[C@H]2[C@@H]3CCC4=CC(=O)C=C[C@]4(C)[C@@]3(Cl)[C@@H](O)C[C@]2(C)[C@@]1(OC(=O)c1ccco1)C(=O)CCl [Mometasone Furoate]
- Quadrant (FIG. 5b) [1, 6]: Q2
- inhibition at 10 µM [2, 7]: 106%
- inhibition at 10 µM ([3]; compounds at 10 μM): 100%
- Fibrin % cell toxicity [4, 8]: 3%
- LPS % cell toxicity ([5]; rat): 4%

Compound: c1ccc2c(c1)sc1ccccc12 [Dibenzothiophene]
- Quadrant (FIG. 5b) [1, 9]: Q4
- inhibition at 10 µM [2, 7]: 14%
- inhibition at 10 µM ([3]; compounds at 10 μM): -21%
- Fibrin % cell toxicity [4, 10]: 0%
- LPS % cell toxicity ([5]; rat): 0%
